The values below come from patent US11173160B2 (UNIVERSITY OF PITTSBURGH—OF THE COMMONWEALTH SYSTEM OF …, priority 2019, dated 2021).

The target of one series is JNK1 (Homo sapiens, UniProt P45983). The note with it: cited from earlier work.
In a further series the target is CDK3 (Homo sapiens, UniProt Q00526). The note with it: Source Millipore; 10-point titration in duplicates, done once; cited from earlier work.
A further series has as its target ASK1 (Homo sapiens, UniProt Q99683). The note with it: cited from earlier work.
Series [1] is described as follows: tissue and plasma distribution after a single PO dose. It counts as in vivo, female nude mice. The method, then: Three mice were sacrificed at a time 10 min, 30 min, 1, 2, 4, 8, and 24 hrs after dosing and pharmacokinetic levels were assessed.
The conditions of series [2]: cited from earlier work.
A further series has as its target JAK2 (Homo sapiens, UniProt O60674). Conditions: Source Invitrogen; 10-point titration in duplicates, done once; cited from earlier work.
Another series concerns the target TLK2 (Homo sapiens, UniProt Q86UE8). Conditions: cited from earlier work.
For another series, the target named is PRAK (Homo sapiens, UniProt Q8IW41). The note with it: cited from earlier work.
The next series has as its target ALK (Homo sapiens, UniProt Q9UM73). The note with it: cited from earlier work.
The target of another series is Abl (Homo sapiens, UniProt P00519). The note with it: cited from earlier work.
A further series concerns the target JAK3 (Homo sapiens, UniProt P52333). Conditions: cited from earlier work.
The conditions of series [3]: cited from earlier work. The source holds these as a separate data set.
A further series has as its system tumor cells (DIPG). The series is described as follows: cell viability with TG02 and radiation (cell count/trypan blue). It counts as cell-based. The note with it: day 5. The protocol: Cells were plated on day 1 (1×10^6). […] On day 5, cell viability were measured by cell count/trypan blue assay on thermo cell countess machines. For fractionated rad, additional 1.8 Gy doses were given on days 3 and 4. […] Therefore, the combination of TG02 and radiation can provide significant, synergistic benefits for treating DIPG as compared to when TG02 and radiation are administered alone.

For another series, the target named is CYP1A2 (Homo sapiens, UniProt P05177). The note with it: cited from earlier work.
A further series concerns the target CK1α1 (Homo sapiens, UniProt P48729). The note with it: cited from earlier work.
The subject of series [4] is six adult patient-derived glioblastoma cell lines (e.g., BT228, BT286, BT145). The series is described as follows: radiation therapy and TG02 in adult glioblastoma cell lines. The series is classed as cell-based, human. The note with it: TG02 between 100 and 250 nM. The method, then: Cell viability was assessed on Day 5.
In a further series the target is Nek2 (Homo sapiens, UniProt P51955). Conditions: cited from earlier work.
The next series has as its target InsR (Homo sapiens, UniProt P06213). The note with it: cited from earlier work.

Chain of ASK1 (Q99683 whole entry): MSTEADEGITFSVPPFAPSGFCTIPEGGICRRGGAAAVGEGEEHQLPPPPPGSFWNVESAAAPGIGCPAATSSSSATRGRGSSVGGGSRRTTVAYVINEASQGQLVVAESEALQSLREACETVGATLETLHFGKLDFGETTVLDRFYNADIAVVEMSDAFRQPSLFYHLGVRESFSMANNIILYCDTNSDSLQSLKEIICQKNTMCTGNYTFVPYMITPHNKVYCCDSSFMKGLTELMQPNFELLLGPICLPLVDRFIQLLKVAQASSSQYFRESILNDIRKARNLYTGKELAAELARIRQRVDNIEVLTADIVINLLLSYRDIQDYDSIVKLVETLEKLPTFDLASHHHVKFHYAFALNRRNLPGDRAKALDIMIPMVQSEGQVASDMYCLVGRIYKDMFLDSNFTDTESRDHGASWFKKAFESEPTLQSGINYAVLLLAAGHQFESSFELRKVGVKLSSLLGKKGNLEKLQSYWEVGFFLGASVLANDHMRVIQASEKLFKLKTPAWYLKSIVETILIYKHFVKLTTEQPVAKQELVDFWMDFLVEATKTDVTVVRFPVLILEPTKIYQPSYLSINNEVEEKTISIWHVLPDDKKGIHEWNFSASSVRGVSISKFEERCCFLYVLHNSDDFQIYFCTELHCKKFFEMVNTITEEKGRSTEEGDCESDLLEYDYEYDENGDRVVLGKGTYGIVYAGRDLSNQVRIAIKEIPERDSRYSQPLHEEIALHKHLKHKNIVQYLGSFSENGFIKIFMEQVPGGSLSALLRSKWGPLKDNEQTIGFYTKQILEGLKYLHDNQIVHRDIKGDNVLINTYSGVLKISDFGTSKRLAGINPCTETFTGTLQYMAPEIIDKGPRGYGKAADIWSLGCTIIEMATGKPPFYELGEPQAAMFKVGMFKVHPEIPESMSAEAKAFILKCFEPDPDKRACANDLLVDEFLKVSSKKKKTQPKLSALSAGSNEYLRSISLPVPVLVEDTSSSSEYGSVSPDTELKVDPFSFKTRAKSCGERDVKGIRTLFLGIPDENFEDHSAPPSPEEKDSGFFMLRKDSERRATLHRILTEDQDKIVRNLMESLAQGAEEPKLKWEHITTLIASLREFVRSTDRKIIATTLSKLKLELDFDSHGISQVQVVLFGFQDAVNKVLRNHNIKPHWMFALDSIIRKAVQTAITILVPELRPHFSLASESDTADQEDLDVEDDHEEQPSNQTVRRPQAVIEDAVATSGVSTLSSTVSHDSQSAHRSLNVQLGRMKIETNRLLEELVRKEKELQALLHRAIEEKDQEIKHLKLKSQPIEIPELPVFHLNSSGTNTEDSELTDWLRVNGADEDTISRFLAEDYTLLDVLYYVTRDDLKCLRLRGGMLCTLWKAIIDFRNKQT
Chain of PRAK (Q8IW41 whole entry, species assumed): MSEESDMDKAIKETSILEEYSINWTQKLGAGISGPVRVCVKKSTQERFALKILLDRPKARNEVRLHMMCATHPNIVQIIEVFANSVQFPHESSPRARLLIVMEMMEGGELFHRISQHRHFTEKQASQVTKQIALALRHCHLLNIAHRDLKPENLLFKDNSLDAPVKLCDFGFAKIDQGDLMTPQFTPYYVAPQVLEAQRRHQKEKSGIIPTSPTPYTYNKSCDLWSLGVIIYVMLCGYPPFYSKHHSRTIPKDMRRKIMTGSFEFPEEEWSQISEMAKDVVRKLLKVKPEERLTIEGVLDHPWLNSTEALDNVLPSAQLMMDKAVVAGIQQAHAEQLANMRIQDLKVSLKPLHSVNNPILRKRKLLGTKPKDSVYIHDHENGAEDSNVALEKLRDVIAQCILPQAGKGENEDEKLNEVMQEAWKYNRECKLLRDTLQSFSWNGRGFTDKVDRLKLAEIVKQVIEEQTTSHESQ
Chain of ALK (Q9UM73 19-1620): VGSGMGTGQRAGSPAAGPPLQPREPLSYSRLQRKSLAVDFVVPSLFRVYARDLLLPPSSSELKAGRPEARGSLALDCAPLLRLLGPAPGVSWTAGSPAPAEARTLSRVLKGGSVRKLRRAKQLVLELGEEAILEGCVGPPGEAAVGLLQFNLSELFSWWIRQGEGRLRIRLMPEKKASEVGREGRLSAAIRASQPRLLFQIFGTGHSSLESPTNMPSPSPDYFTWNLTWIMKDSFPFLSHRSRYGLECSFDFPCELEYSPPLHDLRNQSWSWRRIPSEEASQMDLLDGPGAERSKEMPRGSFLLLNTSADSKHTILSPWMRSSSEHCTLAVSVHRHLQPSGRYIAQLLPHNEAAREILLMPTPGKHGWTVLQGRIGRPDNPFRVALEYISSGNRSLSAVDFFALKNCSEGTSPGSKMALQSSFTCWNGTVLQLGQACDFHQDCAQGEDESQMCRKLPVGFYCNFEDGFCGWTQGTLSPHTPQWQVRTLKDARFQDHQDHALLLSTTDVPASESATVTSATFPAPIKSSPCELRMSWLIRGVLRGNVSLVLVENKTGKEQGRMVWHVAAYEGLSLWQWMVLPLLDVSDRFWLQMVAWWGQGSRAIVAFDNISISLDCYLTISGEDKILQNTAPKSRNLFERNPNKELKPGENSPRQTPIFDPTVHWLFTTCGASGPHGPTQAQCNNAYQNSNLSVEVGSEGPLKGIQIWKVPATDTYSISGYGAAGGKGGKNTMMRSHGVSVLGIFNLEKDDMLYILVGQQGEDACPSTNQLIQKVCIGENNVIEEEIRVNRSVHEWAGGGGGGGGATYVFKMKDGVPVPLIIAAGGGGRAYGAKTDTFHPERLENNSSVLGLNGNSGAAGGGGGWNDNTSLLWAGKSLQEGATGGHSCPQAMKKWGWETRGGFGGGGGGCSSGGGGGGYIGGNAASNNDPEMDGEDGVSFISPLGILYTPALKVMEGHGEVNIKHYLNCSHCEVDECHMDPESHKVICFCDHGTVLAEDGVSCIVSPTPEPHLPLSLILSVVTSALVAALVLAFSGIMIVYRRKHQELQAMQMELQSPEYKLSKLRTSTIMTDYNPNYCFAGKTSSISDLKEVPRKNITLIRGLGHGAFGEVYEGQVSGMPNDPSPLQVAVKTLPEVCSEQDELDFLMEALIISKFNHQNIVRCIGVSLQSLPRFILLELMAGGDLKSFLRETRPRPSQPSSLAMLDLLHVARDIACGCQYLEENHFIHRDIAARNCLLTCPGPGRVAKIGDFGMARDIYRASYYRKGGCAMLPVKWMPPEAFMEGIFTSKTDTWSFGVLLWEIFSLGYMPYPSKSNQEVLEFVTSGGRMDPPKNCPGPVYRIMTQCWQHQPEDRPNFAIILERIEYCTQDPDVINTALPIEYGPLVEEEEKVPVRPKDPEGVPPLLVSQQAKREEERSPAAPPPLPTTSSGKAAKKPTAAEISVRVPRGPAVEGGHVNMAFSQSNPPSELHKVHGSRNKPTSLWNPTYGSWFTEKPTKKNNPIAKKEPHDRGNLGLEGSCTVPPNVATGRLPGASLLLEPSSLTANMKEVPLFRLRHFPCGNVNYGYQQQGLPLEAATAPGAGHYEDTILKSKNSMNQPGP
Chain of JAK2 (O60674 whole entry): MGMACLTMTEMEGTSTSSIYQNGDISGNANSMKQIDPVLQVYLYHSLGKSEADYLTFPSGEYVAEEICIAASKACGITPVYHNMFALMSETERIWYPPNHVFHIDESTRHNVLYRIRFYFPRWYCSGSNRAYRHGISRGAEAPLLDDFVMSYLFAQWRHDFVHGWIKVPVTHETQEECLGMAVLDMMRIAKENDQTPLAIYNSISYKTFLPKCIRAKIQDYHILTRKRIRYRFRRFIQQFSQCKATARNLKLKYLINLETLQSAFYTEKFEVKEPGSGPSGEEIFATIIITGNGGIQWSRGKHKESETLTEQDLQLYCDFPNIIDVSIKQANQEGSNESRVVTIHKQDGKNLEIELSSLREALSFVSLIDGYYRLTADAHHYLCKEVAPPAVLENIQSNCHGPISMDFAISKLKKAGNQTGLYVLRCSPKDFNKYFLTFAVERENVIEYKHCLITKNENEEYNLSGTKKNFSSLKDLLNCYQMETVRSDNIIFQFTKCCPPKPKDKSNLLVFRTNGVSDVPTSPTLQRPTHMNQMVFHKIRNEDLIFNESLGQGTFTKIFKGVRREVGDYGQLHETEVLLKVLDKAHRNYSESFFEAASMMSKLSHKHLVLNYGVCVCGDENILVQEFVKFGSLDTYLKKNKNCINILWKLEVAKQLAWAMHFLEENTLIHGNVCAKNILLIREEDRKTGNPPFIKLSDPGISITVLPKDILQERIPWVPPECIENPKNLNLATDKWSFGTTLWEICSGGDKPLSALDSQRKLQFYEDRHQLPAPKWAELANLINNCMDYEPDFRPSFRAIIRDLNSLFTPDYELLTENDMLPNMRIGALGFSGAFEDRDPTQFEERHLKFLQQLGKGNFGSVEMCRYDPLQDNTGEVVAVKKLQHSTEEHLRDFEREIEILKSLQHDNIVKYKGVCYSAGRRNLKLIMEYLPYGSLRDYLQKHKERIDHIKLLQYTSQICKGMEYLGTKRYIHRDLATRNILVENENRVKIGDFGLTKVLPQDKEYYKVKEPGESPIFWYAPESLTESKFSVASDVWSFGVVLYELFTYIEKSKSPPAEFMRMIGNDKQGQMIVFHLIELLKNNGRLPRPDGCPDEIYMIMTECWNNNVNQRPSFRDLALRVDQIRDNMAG
Chain of Nek2 (P51955 whole entry): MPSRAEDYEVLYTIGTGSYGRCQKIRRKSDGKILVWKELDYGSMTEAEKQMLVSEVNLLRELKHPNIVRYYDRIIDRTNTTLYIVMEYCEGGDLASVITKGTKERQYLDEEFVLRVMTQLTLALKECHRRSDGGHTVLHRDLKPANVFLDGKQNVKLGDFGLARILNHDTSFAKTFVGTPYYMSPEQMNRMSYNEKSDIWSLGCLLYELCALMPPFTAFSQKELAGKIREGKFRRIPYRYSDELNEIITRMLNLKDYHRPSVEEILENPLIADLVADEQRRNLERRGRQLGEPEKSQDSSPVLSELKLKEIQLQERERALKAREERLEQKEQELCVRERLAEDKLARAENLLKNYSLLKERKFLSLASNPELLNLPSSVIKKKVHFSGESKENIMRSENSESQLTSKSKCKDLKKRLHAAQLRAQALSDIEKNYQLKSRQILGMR

Usually IC50 stands for the concentration needed to halve the response being measured. In the case of `CN1C/C=C/CCOc2cccc(c2)-c2ccnc(n2)Nc2cccc(c2)C1` [TG02, (16E)-14-methyl-20-oxa-5,7,14,27-tetraazatetracyclo[19.3.1.12,6.18,12]heptacosa-1(25),2(27),3,5,8(26),9,11,16,21,23-decaene], the “inhibition at 100 nm” value (at JNK1; on ASK1; in [2]; on TLK2; on PRAK; on ALK) was “less than 50%” in each case. Besides, the “inhibition at 100 nm” value at Abl, at JAK3, at CK1α1, at Nek2 and on InsR was “less than 50%” throughout. Further, the results for the IC50 on CDK3 and at JAK2 were 8 nM and 19 nM, respectively. For the same compound, the blood-brain barrier penetration entry in [1] (mouse, in vivo) is listed as “blood-brain barrier penetrant”. In addition, in [1] (single PO dose of 75 mg/kg), the “Cmax in the brain compared to plasma” value is “at least twice as high”. Besides, the “exposure (AUC0-last) in the brain compared to plasma” value in series [1] (single PO dose of 75 mg/kg) is on record as “at least twice as high”. In addition, the “most clinically significant toxicities, TG02 combined with RT” value in series [3] (human, in vivo) is “grade 2 nausea and vomiting and grade 3 neutropenia”. Further, in [3] (twice a week in older adults), the “significant drug-related toxicities, single agent” value was “increased liver function tests and grade 3 neutropenia”. For the same compound, the MTD as single-agent in series [3] (twice a week in older adults, probably) is listed as around 150 mg per dose. Further, in the series with tumor cells (DIPG) (vehicle control about 100%), the “tumor cell viability, TG02 alone” value came to 50%. The “tumor cell viability, TG02 and radiation” value in the series on tumor cells (DIPG) (radiation 3 fractions of 1.8 Gy) is “about 25%”. Also, at CYP1A2, the “substrate of CYP1A2” value is recorded as “substrate”. Besides, the “effect of combining radiation therapy (RT) and TG02” value in [4] is “mostly a synergistic effect”.
